Literature values as cited in patent US6183992A, “Method for mass production of antimicrobial peptide” (Samyang Genex Corporation, priority 1997, dated 2001).
Ends that are not written are not given here.

Settings: Table 1, excerpted from Peptide Science, Vol 37, 105-122 (1995)

Molecule | pI
GKPRPYSPRPTSHPRPIRV [Drosocin] | 12.22
CC[C@H](C)[C@H](NC(=O)CN)C(=O)NCC(=O)N[C@@H](C)C(=O)N[C@H](C(=O)N[C@@H](CC(C)C)C(=O)N[C@@H](CCCCN)C(=O)N[C@H](C(=O)N[C@@H](CC(C)C)C(=O)N[C@H](C(=O)N[C@H](C(=O)NCC(=O)N[C@@H](CC(C)C)C(=O)N1CCC[C@H]1C(=O)N[C@@H](C)C(=O)N[C@@H](CC(C)C)C(=O)N[C@H](C(=O)N[C@@H](CO)C(=O)N[C@@H](Cc1c[nH]c2ccccc12)C(=O)N[C@H](C(=O)N[C@@H](CCCCN)C(=O)N[C@@H](CCCNC(=N)N)C(=O)N[C@@H](CCCCN)C(=O)N[C@@H](CCCNC(=N)N)C(=O)N[C@@H](CCC(N)=O)C(=O)N[C@@H](CCC(N)=O)C(N)=O)[C@@H](C)CC)[C@@H](C)CC)[C@@H](C)O)[C@@H](C)O)C(C)C)C(C)C [Melittin] | 12.53
HNP-I [HNP1] | 8.28
Apidaecin I | 12.21
CC[C@H](C)[C@H](N)C(=O)N[C@@H](CC(C)C)C(=O)N1CCC[C@H]1C(=O)N[C@@H](Cc1c[nH]c2ccccc12)C(=O)N[C@@H](CCCCN)C(=O)N[C@@H](Cc1c[nH]c2ccccc12)C(=O)N1CCC[C@H]1C(=O)N[C@@H](Cc1c[nH]c2ccccc12)C(=O)N[C@@H](Cc1c[nH]c2ccccc12)C(=O)N1CCC[C@H]1C(=O)N[C@@H](Cc1c[nH]c2ccccc12)C(=O)N[C@@H](CCCNC(=N)N)C(=O)N[C@@H](CCCNC(=N)N)C(N)=O [Indolicidin] | 12.51

Continued, values first:

pI | Molecule
10.34 | Bombinin
10.89 | Cercropin A [Ceropin A]
10.01 | Tachyplesin I
11.41 | Magainin (MSI-344)
